Laboratory results as given in article PMC5382548 (Scientific Reports, 2015).

Legend:
[1] = system: human KRAS promoter (pGL-Ras0.5, pGL-Ras2.0); test: KRAS promoter luciferase reporter assay in HEK293T cells; type: cell-based; settings: equitoxic (IC50) concentrations, 72 h, vs DMSO
Description: A first evaluation of the compounds' ability to down-regulate KRAS gene transcription by directly acting on the KRAS promoter was undertaken with a luciferase reporter assay. For this purpose two different size wild-type promoter constructs were used, containing the G4 sequence and cloned into the Firefly luciferase pGL3 Basic backbone (pGL-Ras0.5, PGL-Ras2.0). These and pGL3 Basic empty (Firefly Luciferase negative control/no promoter) were co-transfected into HEK293T cells together with Renilla luciferase pRL-TK (transfection efficiency normalization) as a G4 negative control. […] In general, the data in Figure 5 clearly portraits a reduction of luciferase activity by ~25–50% when compared to Renilla basal levels induced by all G4 ligands.
Figure 5 KRAS promoter activity is decreased following exposure of HEK293T cells lines to equitoxic (IC50) concentrations of compounds TMPyP4, 2d, 3d and 3e. Cells were co-transfected with pGL3-basic vector (empty vector control), or with KRAS promoter luciferase reporter construct PGL-Ras0.5, or PGL-Ras2.0, together with pRL-TK. Twenty-four h later, cells were replated in 96 wells plates, at 5000 cells per well. […] KRAS promoter activity levels were evaluated by Dual-Luciferase assay 72 h after compound exposure. Results are expressed as the luciferase signal ratio of pGL-Ras2.0 or pGL-Ras0.5 to pGL3-basic vector transfected cells, after normalization with Renilla Luciferase. The results are expressed as the mean ± SEM fold-change compared to DMSO exposure, from three independent experiments. *p < 0.05 and § p < 0.01 from DMSO vehicle control.
HEK293T cells were seeded in 35 mm plates at 150000 cells per well. 24 h later, cells were transiently co-transfected with pGL3-basic vector (empty vector control), or with KRAS promoter luciferase reporter construct pGL-Ras0.5, or pGL-Ras2.0, together with pRL-TK (Promega, Madison, WI, USA). KRAS promotor luciferase reporters respectively harbour 500 bp and 2000 bp of the human KRAS promotor region, and were previously described elsewhere. pGL3 Basic empty was used as negative control, and pRL-TK simultaneously for transfection efficiency normalization and as a G4 negative control. […] Transfections were performed using Lipofectamine 2000 (Invitrogen), according to the manufacturer's instructions. […] Finally, 72 h after compound incubation, cells were lysed and firefly and Renilla luciferase activities were measured using the Dual-Luciferase®Reporter Assay System (Promega). KRAS promoter activity levels were expressed as the luciferase signal ratio of pGL-Ras2.0 or pGL-Ras0.5 to pGL3-basic vector transfected cells, after normalization with Renilla Luciferase. The results are expressed as the mean ± SEM fold-change compared to DMSO exposure, from three independent experiments.

[2] = system: ALT (telomerase negative human lung fibroblast); test: SRB short-term cytotoxicity assay, ALT; type: cell-based; settings: 96 h
Method: Short-term anti-proliferative assays were carried out by two different assays using a panel of human cancer and non-malignant human cell lines. […] The transformed human embryonic kidney cell line HEK293T (wt KRAS) was sensitive to all tested drugs, including TMPyP4, a cationic porphyrin established as a G4 ligand, as well as the anticancer drug 5-fluorouracil (5-FU).
Human cell lines, breast carcinoma (MCF7), lung carcinoma (A549), pancreatic cancer (MIA PaCa2, Panc-1), immortalised telomerase-negative human lung fibroblast (ALT) and normal human lung fibroblast (WI-38), were all purchased from American Type Cell Culture (ATCC). Cell lines were maintained in appropriate medium supplemented with 10% fetal bovine serum (Invitrogen, UK), 2 mM L-glutamine (Invitrogen, Netherlands), and other components as specified by the suppliers. All cell lines were maintained at 37°C, 5% CO2, and routinely passaged. Short-term growth inhibition was measured using the SRB assay as described previously[43] (additional details described in Supplementary Information). […]
Sulforhodamine B (SRB) short-term cytotoxicity assay
Cells were seeded at appropriate densities into the wells of 96 well plates in their corresponding medium and incubated overnight to allow the cells to attach. Subsequently cells were exposed to various concentrations of freshly made solutions of drugs and incubated for 96 h. The cells were subsequently fixed with ice-cold trichloacetic acid (TCA) (10%, w/v) for 30 min and stained with 0.4% SRB dissolved in 1% acetic acid for 15 min.
All incubations were carried out at room temperature except for TCA fixation, which was at 4 °C. […]
After electrophoretic transfer onto nitrocellulose membranes, immunoblots were blocked with 5% milk solution, and next incubated overnight at 4 °C with primary mouse monoclonal antibody reactive to KRAS/p53 (#sc-30/sc-126; Santa Cruz Biotechnology Inc., Santa Cruz, CA, USA). […] Steady-state protein levels were expressed as mean ±SEM from at least three independent experiments.

| Structure (SMILES) | Reduction of KRAS promoter (luciferase) activity [1] | IC50 [2] [µM] |
| --- | --- | --- |
| C[n+]1ccc(-c2c3nc(c(-c4cc[n+](C)cc4)c4ccc([nH]4)c(-c4cc[n+](C)cc4)c4ccc([nH]4)c(-c4cc[n+](C)cc4)c4nc2C=C4)C=C3)cc1 [TMPyP4, reference compound] | 25% |  |
| CCN(CC)CCCNc1ccc2c(c1)c1[nH]c3ccccc3c1c[n+]2C [2d] | up to 50% | 1.93 |
| CCN(CC)CCCNc1ccc2c(c1)[nH]c1c2c[n+](C)c2ccc(NCCCN(CC)CC)cc12.[Cl-] [3e] | up to 50% | 7.11 |
| Cn1cc2c3ccccc3nc-2c2cc(Br)ccc21 [2a, 2-bromo-5-methyl-indolo[3,2-c]quinoline] |  | 4.75 |
| CCN(CC)CCCNc1ccc2[nH]c3c(c[n+](C)c4ccc(NCCCN(CC)CC)cc34)c2c1.[Cl-] [3d] | up to 50% |  |
